{
  "source": "the supplement of paper PMC10307832",
  "assay_in_all_cases": "relative viability (nuclei count vs DMSO), 5 days (fraction); higher = more cells survive",
  "key": {"Dinaciclib": {"compound": "CCc1cnn2c(NCc3ccc[n+]([O-])c3)cc(N3CCCC[C@H]3CCO)nc12 [Dinaciclib]", "method_in_brief": "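Hoechst staining, done together with fixation and permeabilisation, marked nuclei for 4× imaging and MetaXpress counting. This followed 5 days without medium change after lung cancer cell lines, kept overnight at 37 °C in 1536-well plates, were pinned with five library-drug doses (not always all listed) spaced by √10 on vehicle-anchored plates. Viability is the ratio of treated-well to vehicle-well nuclei, expressed as a median across plates. Plates passed only at control CV below 25% with at least one doubling.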"}, "Dinaciclib + Trametinib": {"compound": "CCc1cnn2c(NCc3ccc[n+]([O-])c3)cc(N3CCCC[C@H]3CCO)nc12 [Dinaciclib] + CC(=O)Nc1cccc(-n2c(=O)n(C3CC3)c(=O)c3c(Nc4ccc(I)cc4F)n(C)c(=O)c(C)c32)c1 [Trametinib] (partner 0.02 µM)", "method_in_brief": "(§1)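 A single step with final 0.05% Triton X-100, 1% formaldehyde and 1 ug/ml Hoechst fixed the cells and stained nuclei 5 days after treatment. Lung cancer cell lines in 1536-well plates had been treated by pin tool the day after seeding with one drug alone or a fixed anchor-drug dose plus five library-drug doses (not always all listed) in √10 steps, and nuclei were counted on 4× images. Relative viability is the ratio of nuclei in treated wells to nuclei in vehicle wells, taken as the median of duplicate plates.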"}, "Dinaciclib + Palbociclib": {"compound": "CCc1cnn2c(NCc3ccc[n+]([O-])c3)cc(N3CCCC[C@H]3CCO)nc12 [Dinaciclib] + CC(=O)c1c(C)c2cnc(Nc3ccc(N4CCNCC4)cn3)nc2n(C2CCCC2)c1=O [Palbociclib] (partner 0.5 µM)", "method_in_brief": "as §1"}, "Dinaciclib + OSI-027": {"compound": "CCc1cnn2c(NCc3ccc[n+]([O-])c3)cc(N3CCCC[C@H]3CCO)nc12 [Dinaciclib] + COc1cccc2cc(-c3nc([C@H]4CC[C@H](C(=O)O)CC4)n4ncnc(N)c34)[nH]c12 [OSI-027] (partner 0.5 µM)", "method_in_brief": "as §1"}, "Dinaciclib + Tozasertib": {"compound": "CCc1cnn2c(NCc3ccc[n+]([O-])c3)cc(N3CCCC[C@H]3CCO)nc12 [Dinaciclib] + Cc1cc(Nc2cc(N3CCN(C)CC3)nc(Sc3ccc(NC(=O)C4CC4)cc3)n2)n[nH]1 [Tozasertib] (partner 0.1 µM)", "method_in_brief": "as §1"}, "Dinaciclib + AZD7762": {"compound": "CCc1cnn2c(NCc3ccc[n+]([O-])c3)cc(N3CCCC[C@H]3CCO)nc12 [Dinaciclib] + NC(=O)Nc1cc(-c2cccc(F)c2)sc1C(=O)N[C@H]1CCCNC1 [AZD7762] (partner 0.2 µM)", "method_in_brief": "as §1"}, "Dinaciclib + Pemetrexed": {"compound": "CCc1cnn2c(NCc3ccc[n+]([O-])c3)cc(N3CCCC[C@H]3CCO)nc12 [Dinaciclib] + Nc1nc2[nH]cc(CCc3ccc(C(=O)N[C@@H](CCC(=O)O)C(=O)O)cc3)c2c(=O)[nH]1 [Pemetrexed] (partner 0.2 µM)", "method_in_brief": "as §1"}, "Dinaciclib + Decitabine": {"compound": "CCc1cnn2c(NCc3ccc[n+]([O-])c3)cc(N3CCCC[C@H]3CCO)nc12 [Dinaciclib] + Nc1ncn([C@H]2C[C@H](O)[C@@H](CO)O2)c(=O)n1 [Decitabine] (partner 2 µM)", "method_in_brief": "as §1"}, "Dinaciclib + Vorinostat": {"compound": "CCc1cnn2c(NCc3ccc[n+]([O-])c3)cc(N3CCCC[C@H]3CCO)nc12 [Dinaciclib] + O=C(CCCCCCC(=O)Nc1ccccc1)NO [Vorinostat] (partner 1 µM)", "method_in_brief": "as §1"}, "Dinaciclib + Olaparib": {"compound": "CCc1cnn2c(NCc3ccc[n+]([O-])c3)cc(N3CCCC[C@H]3CCO)nc12 [Dinaciclib] + O=C(c1cc(Cc2n[nH]c(=O)c3ccccc23)ccc1F)N1CCN(C(=O)C2CC2)CC1 [Olaparib] (partner 8 µM)", "method_in_brief": "as §1"}},
  "data": [
    {"cell line": "NCI-H1648", "values": [
      {"measurement": "relative viability", "setting": "Dinaciclib; 0.009487 µM", "value": 0.788},
      {"measurement": "relative viability", "setting": "Dinaciclib; 0.03 µM", "value": 0.301},
      {"measurement": "relative viability", "setting": "Dinaciclib; 0.09487 µM", "value": 0.247},
      {"measurement": "relative viability", "setting": "Dinaciclib; 0.3 µM", "value": 0.29},
      {"measurement": "relative viability", "setting": "Dinaciclib + Trametinib; first compound 0.009487 µM", "value": 0.49},
      {"measurement": "relative viability", "setting": "Dinaciclib + Trametinib; first compound 0.03 µM", "value": 0.346},
      {"measurement": "relative viability", "setting": "Dinaciclib + Trametinib; first compound 0.09487 µM", "value": 0.241},
      {"measurement": "relative viability", "setting": "Dinaciclib + Trametinib; first compound 0.3 µM", "value": 0.264},
      {"measurement": "relative viability", "setting": "Dinaciclib + Palbociclib; first compound 0.009487 µM", "value": 0.227},
      {"measurement": "relative viability", "setting": "Dinaciclib + Palbociclib; first compound 0.03 µM", "value": 0.223},
      {"measurement": "relative viability", "setting": "Dinaciclib + Palbociclib; first compound 0.09487 µM", "value": 0.265},
      {"measurement": "relative viability", "setting": "Dinaciclib + Palbociclib; first compound 0.3 µM", "value": 0.224},
      {"measurement": "relative viability", "setting": "Dinaciclib + OSI-027; first compound 0.009487 µM", "value": 0.263},
      {"measurement": "relative viability", "setting": "Dinaciclib + OSI-027; first compound 0.03 µM", "value": 0.259},
      {"measurement": "relative viability", "setting": "Dinaciclib + OSI-027; first compound 0.09487 µM", "value": 0.265},
      {"measurement": "relative viability", "setting": "Dinaciclib + OSI-027; first compound 0.3 µM", "value": 0.212},
      {"measurement": "relative viability", "setting": "Dinaciclib + Tozasertib; first compound 0.009487 µM", "value": 0.503},
      {"measurement": "relative viability", "setting": "Dinaciclib + Tozasertib; first compound 0.03 µM", "value": 0.274},
      {"measurement": "relative viability", "setting": "Dinaciclib + Tozasertib; first compound 0.09487 µM", "value": 0.166},
      {"measurement": "relative viability", "setting": "Dinaciclib + Tozasertib; first compound 0.3 µM", "value": 0.207},
      {"measurement": "relative viability", "setting": "Dinaciclib + AZD7762; first compound 0.009487 µM", "value": 0.85},
      {"measurement": "relative viability", "setting": "Dinaciclib + AZD7762; first compound 0.03 µM", "value": 0.577},
      {"measurement": "relative viability", "setting": "Dinaciclib + AZD7762; first compound 0.09487 µM", "value": 0.266},
      {"measurement": "relative viability", "setting": "Dinaciclib + AZD7762; first compound 0.3 µM", "value": 0.24},
      {"measurement": "relative viability", "setting": "Dinaciclib + Pemetrexed; first compound 0.009487 µM", "value": 0.644},
      {"measurement": "relative viability", "setting": "Dinaciclib + Pemetrexed; first compound 0.03 µM", "value": 0.677},
      {"measurement": "relative viability", "setting": "Dinaciclib + Pemetrexed; first compound 0.09487 µM", "value": 0.25},
      {"measurement": "relative viability", "setting": "Dinaciclib + Pemetrexed; first compound 0.3 µM", "value": 0.199},
      {"measurement": "relative viability", "setting": "Dinaciclib + Decitabine; first compound 0.009487 µM", "value": 0.468},
      {"measurement": "relative viability", "setting": "Dinaciclib + Decitabine; first compound 0.03 µM", "value": 0.218},
      {"measurement": "relative viability", "setting": "Dinaciclib + Decitabine; first compound 0.09487 µM", "value": 0.231},
      {"measurement": "relative viability", "setting": "Dinaciclib + Decitabine; first compound 0.3 µM", "value": 0.217},
      {"measurement": "relative viability", "setting": "Dinaciclib + Vorinostat; first compound 0.009487 µM", "value": 0.275},
      {"measurement": "relative viability", "setting": "Dinaciclib + Vorinostat; first compound 0.03 µM", "value": 0.434},
      {"measurement": "relative viability", "setting": "Dinaciclib + Vorinostat; first compound 0.09487 µM", "value": 0.294},
      {"measurement": "relative viability", "setting": "Dinaciclib + Vorinostat; first compound 0.3 µM", "value": 0.262},
      {"measurement": "relative viability", "setting": "Dinaciclib + Olaparib; first compound 0.009487 µM", "value": 0.521},
      {"measurement": "relative viability", "setting": "Dinaciclib + Olaparib; first compound 0.03 µM", "value": 0.387},
      {"measurement": "relative viability", "setting": "Dinaciclib + Olaparib; first compound 0.09487 µM", "value": 0.234},
      {"measurement": "relative viability", "setting": "Dinaciclib + Olaparib; first compound 0.3 µM", "value": 0.219}
    ]}
  ]
}
